According to patent US7282599B2, “Dithiocarbamate antiviral agents and methods of using same” (Avir Green Hills Biotechnology Research Devlopment Trade AG, priority 2001, dated 2007):

Assays:
respiratory RNA viruses = assay: Action of antioxidants against respiratory RNA viruses (summary statement); assay type: cell-based
[1] = system: HRV serotypes 1A, 2, 14 and 16; assay: Virus progeny titer (TCID50 test) in supernatants of HRV-infected HeLa cells; assay type: cell-based, human rhinovirus; settings: 20 TCID50 per cell, PDTC 125 μm
Method: PDTC was added after infection of cells with various HRV serotypes to test the effectiveness during infections by HRV. HeLa cells were infected with HRV serotypes 1A, 2, 14 and 16 with 20 TCID50 (tissue culture infectious dose 50) per cell. PDTC was added at the same time to a concentration of 125 μm in the medium. Excess virus was removed 4 hours after infection, while PDTC was added to the fresh medium. 24 hours (FIG. 1, top) and 48 hours (FIG. 1, bottom) after the infection (p. I.), the supernatants were collected and the amount of virus progeny was determined by TCID50 tests. Treatment of cells with PDTC reduced the virus titer (vt) by 10^3 after 24 hours (FIG. 1, top).

[2] = system: HRV2, HRV14, HRV1A and HRV16; assay: HRV-induced cytopathic effects (morphology) in HeLa cells; assay type: cell-based, human rhinovirus
Method: Morphological changes in the cells, called “cytopathic effects” (CPE) occur in the late stages of a rhinoviral infection. These HRV induced CPE are characterized as cell rounding, shrinkage, deformation of the nucleus and chromatin condensation. When HeLa cells are infected with HRV2, HRV14, HRV1A and HRV16 at 100 TCID50 per cell, a distinct cytopathic effect is visible after 8 hours post-infection.

HRV2 [3] = assay: Cell Titer 96 cell proliferation assay, viability of HRV2-infected HeLa cells; assay type: cell-based, human rhinovirus; settings: for viability of infected cells: HeLa cells, HRV2 20 TCID50/cell, 24 hours after infection, even slight concentrations; for protective effect during viral proliferation: determined as described in Example 3, HRV2-infected HeLa cells
Excerpt: A cell proliferation assay was done to test the effect of PDTC or DDTC on the viability of the cells during a viral infection.

[4] = system: HRC serotypes 1A, 2, 14 and 16; assay: Time of addition, proliferation assay of HRV-infected cells; assay type: cell-based, human rhinovirus; settings: PDTC 125 μM, 20 TCID50 per cell
Method: To determine the stage of the viral life cycle attacked by PDTC, PDTC was added at various times following virus infection with 20 TCID50 per cell, and proliferation assays were done. […] This effect is also not specific for a single serotype, as HRC serotypes 1A, 2, 14 and 16 were used. Only PDTC treatment (125 μM) of the cells more than 8 hours after infection reduced the protective effect.

HRV2 [5] = assay: Time of addition, viral titers in supernatants of HRV2-infected cells; assay type: cell-based, human rhinovirus
Method: Similar results were obtained if the viral titers (vt) were determined in the supernatants of infected and PDTC-treated cells (see FIG. 4B). Addition of PDTC up to four hours after infection reduced the titer of the HRV2 produced by 10^3.

eIF4GI = assay: Western blot of eIF4GI splitting by viral 2A protease in HRV2-infected HeLa cells; assay type: cell-based, human rhinovirus; settings: HRV2 100 TCID50 per cell
Method: Various proteolytic activities were determined to examine the course of a rhinoviral infection in the presence and absence of PDTC. Enzymatic splitting of the cellular translation initiation factors 4GI (eIF4GI) and 4GII by viral 2A protease, ending host cell protein synthesis, is one characteristic proteolytic activity that occurs in the course of infection with rhinoviruses and enteroviruses. Depending on the HRV serotype, eIF4G proteins are split in an early stage of infection. Another splitting activity during a rhinoviral infection, only recently described, is splitting of the intermediary filament protein cytokeratin 8. This splitting also depends on the 2A protease, but occurs at a later stage of the infection. In order to investigate the effect of a PDTC treatment on the course of a virus infection, a Western blot analysis was done to analyze these 2A protease substrates.
Medium was removed at the indicated times for the Western blot analysis. The cells were lysed by adding 100 μl of protein buffer (8% sodium dodecyl sulfate, 20% β-mercapto-ethanol, 20% glycerol, 0.04% bromphenol blue). 20 μl protein extract was separated by SDS-PAGE on each track, and blotted onto PVDF membranes. […] The molecular weights were determined by using a prestained SDS-7B marker (Sigma).
Splitting of eIF4GI can be detected 4 hours after infection in HeLa cells infected with HRV2 (100 TCID50 per cell). […]

[6] = system: rhinoviral proteins VP1, VP2 and VP3; assay: Western blot of HRV2 capsid proteins in infected HeLa cells; assay type: cell-based, human rhinovirus; settings: HRV2 100 TCID50 per cell
Excerpt: To determine the effect of PDTC on the expression of viral proteins, capsid proteins of HRV2 were detected by Western blot analysis in protein extracts from HRV2-infected HeLa cells (100 TCID50 per cell) (see FIG. 6). The Western blot analysis was done as described above in Example 5, with use of a polyclonal rabbit antiserum against HRV2. Significant amounts of the rhinoviral proteins VP1, VP2 and VP3 were detected in untreated cells six hours after infection.

HRV2 [7] = assay: Crystal violet staining of cell lawn of HRV2-infected HeLa cells; assay type: cell-based, human rhinovirus; settings: HRV2 100 TCID50 per cell, compound added 1 hour after infection, stained after 24 hours
A/PR8/34 = assay: microbe, parasite or virus in culture; assay type: cell-based, influenza A virus; settings: 4 days
A/Vienna/47/96 = assay: microbe, parasite or virus in culture; assay type: cell-based, influenza A virus; settings: 4 days
[8] = system: influenza A/PR8/34 and influenza A/Vienna/47/96; assay: microbe, parasite or virus in culture; assay type: cell-based, influenza A virus
influenza virus [9] = assay: Mice inoculated intranasally with lethal dose of influenza virus, intranasal treatment; assay type: in vivo, C57/BL6 mice; settings: 25 μl 600 mM PDTC intranasally
Method: Ten C57/BL6 mice were inoculated intranasally with a lethal dose (50 μl 10^7 pfU). One hour later, they were treated intranasally with 25 μl 600 mM PDTC or with 25 μl PBS. The mice were examined and treated every 12 hours for the first 48 hours and then every 24 hours. The weights of the mice were determined and reported in % of the initial weight (% w) (FIG. 11A). […] All the mice treated with PBS (diamonds) died within 12 days after the infection (% s=% surviving).

[10] = system: equine rhinitis A virus (ERAV); assay type: cell-based; settings: vero cells, 10 TCID50 ERAV per cell, PDTC 1 mM-50 μM, 24 hours after infection
Method: The reduction of ERAV viral propagation by addition of PDTC was investigated as follows: vero cells were infected with 10 TCID50 ERAV per cell. At the same time, PDTC was added at different concentrations (1 mM-50 μM). The inoculum was removed 4 hours after infection, and fresh medium with PDTC was added. The supernatants were removed 24 hours after the infection, and the viral titers were determined in a standard plate assay.

FMV virus O-Manisa [11] = assay: microbe, parasite or virus in culture; assay type: cell-based, foot and mouth disease virus
FMV virus O-Manisa [12] = assay type: cell-based, foot and mouth disease virus; settings: IB-RS-2 cells, 0.001 TCID50 per cell, PDTC up to 200 μM, 24 hours after infection
FSME virus (Neudörfel) = assay: FSME virus proliferation in suspended cells; assay type: cell-based; settings: same concentrations, 0.975 to 1000 μM
Method: Similarly, we investigated whether PDTC can affect virus proliferation in suspended cells. The same concentrations as above were tested.

EMC virus = assay: Mice infected intraperitoneally with EMC virus, intraperitoneal treatment; assay type: in vivo, C57B16 mice; settings: 50 μl of 50 mM PDTC per day i.p.
Method: C57B16 mice were infected intraperitoneally with 10 TCID50 of EMC virus. Then, the control group was treated intraperitoneally once daily with PBS. Two other groups were treated with 50 μl of 50 mM PDTC per day. Treatment of one group (PDTC) was started simultaneously with the infection, while treatment of the other group (PDTC 24 hpi) was started only 24 hours after the infection.

BHK-21 cells = settings: PDTC 0.975 to 1000 μM, 4 days at 37° C.
influenza virus [13] = settings: Knobil et al., Am. J. Physiol. 1998; cited from earlier work
HeLa cells = assay: Cell proliferation assay on uninfected HeLa cells (toxicity control); settings: for toxicity of the concentration used to inhibit the viral infections: HeLa cells; for effects on uninfected cells (viability): compound alone, uninfected HeLa cells
[14] = system: human immunodeficiency virus; settings: asymptomatic and minimally symptomatic HIV patients, HIV87 Study Group 1993; cited from earlier work
mengovirus virions = settings: Calvert, Interferon Research 1990; cited from earlier work

For Vitamin E, the “action against respiratory RNA viruses” value (respiratory RNA viruses) was “no action at all”.
With `S=C(S)N1CCCC1` [PDTC, pyrrolidine dithiocarbamate] the “reduction of the virus titer (vt)” value ([1]; supernatants 24 hours after infection) was 10^3, the “virus titer in supernatants” value ([1]; supernatants 48 hours after infection) was “significant reduction of the virus titer” and the “morphology of infected cells” value ([2]; 125 μM PDTC, 8 hours after the infection) was “cannot be distinguished from the morphology of non-infected (n. i.) cells”. For the same molecule, the “appearance of cytopathic effects” value ([2]; HeLa cells, 100 TCID50 per cell, PDTC added during the infection) was “prevents the appearance of these cytopathic effects”, the “viability of infected cells” value (HRV2 [3]) was “significantly increased” and the “time of PDTC treatment after infection at which the protective effect was reduced” value [4] was “more than 8 hours”. The “time of addition offering the best protection against virus induced loss of proliferation” value [4] was “within the first six hours after infection”, the viral titers produced (HRV2 [5]; PDTC treatment started only 6 hours after infection) was “significantly reduced” and the “reduction of the titer of the HRV2 produced” value (HRV2 [5]; addition of PDTC up to four hours after infection) was 10^3. The “splitting of eIF4GI” value (eIF4GI; 4 and 8 hours after infection) was “No splitting of eIF4GI can be detected”, the “splitting of eIF4GI” value (eIF4GI; about 24 hours after infection) was “slight eIF4GI splitting can be detected” and the “expression of VP1, VP2 and VP3” value ([6]; about 24 hours after infection) was “Weak expression”. The “expression of capsid proteins VP1, VP2 and VP3” value ([6]; within the first 8 hours after infection) was “prevented expression of those capsid proteins”, the “prevention of destruction of the cell lawn by HRV2 infection” value (HRV2 [7]) was “can prevent that effect” and the inhibition at 1200 µM (A/PR8/34; Influenza A virus, PR8, 96 h, PDTC 1200 μM, read-out: inhibition (TCID50 assay)) was greater than 99.9%. The “reduction of TCID50” value (A/PR8/34; PDTC 300 μM) was 76.4%, the inhibition at 1200 µM (A/Vienna/47/96; Influenza A virus, 96 h, PDTC 1200 μM, read-out: inhibition (TCID50 assay)) was greater than 99.9% and the “reduction of TCID50” value (A/Vienna/47/96; PDTC 300 μM) was 82.2%. For the same molecule, the EC50 ([8]; Influenza A virus, PR8, Vero, 96 h, read-out: PDTC concentration for 50% reduction of positive wells) was 50 to 100 µM, the “PDTC concentration for complete inhibition of cytopathic effects” value ([8]; all viruses, vero cells) was 600 µM and the “weight of infected mice” value (influenza virus [9]; 7 days after the infection) was “gained weight”. The “survival of infected mice” value (influenza virus [9]; from one hour after lethal inoculation) was “all the mice treated with PDTC (squares) survived the virus infection”, the “virus titer (vt) in the supernatant in comparison to untreated cells” value [10] was “decreases” and the “protection against the cytopathic effect of the virus” value (FMV virus O-Manisa [11]; 600 μM PDTC, IB-RS-2 cells, 0.1 TCID50 per cell, 24 hours) was 100%. The EC50 (FMV virus O-Manisa [11]; Foot-and-mouth disease virus, 24 h, read-out: concentration range for 50% reduction of infected wells) was 75 to 150 µM, the “reduction of virus titer compared with the control sample” value (FMV virus O-Manisa [12]) was “more than 2 log steps” and the “reduction of virus proliferation in suspended cells” value (FSME virus (Neudörfel)) was “no indication of reduction of virus proliferation”. The “changes of the mouse weights after the beginning of the infection” value (EMC virus; started with infection or 24 hours after) was “no difference in treated and untreated mice”, the “average time to death for the infected mice” value (EMC virus; every group: PBS, PDTC, PDTC 24 hpi) was 5.5 days and the “toxic effects on cell monolayer (microscopic examination)” value (BHK-21 cells) was “no indications of toxic effects”. The “inhibition of influenza virus infection or replication” value (influenza virus [13]) was “neither NAC nor PDTC inhibits influenza virus infection or replication”, the “toxicity of the concentration used to inhibit the viral infections” value (HeLa cells) was “exhibits no toxicity” and the “effects on uninfected cells (viability)” value (HeLa cells) was “only minor effects on uninfected cells”.
In the case of `CC(=O)N[C@@H](CS)C(=O)O` [NAC, N-acetylcysteine, reference compound], the “prevention of destruction of the cell lawn by HRV2 infection” value (HRV2 [7]) is given as “not”, the “action against respiratory RNA viruses” value (respiratory RNA viruses) is given as “no action at all” and the “inhibition of influenza virus infection or replication” value (influenza virus [13]) is given as “neither NAC nor PDTC inhibits influenza virus infection or replication”.
In the case of `O=C1O[C@H]([C@@H](O)CO)C(O)=C1O` [Vitamin C], the “protective effect during viral proliferation” value (HRV2 [3]) is reported as “none of these antioxidants had any protective effect” and the “action against respiratory RNA viruses” value (respiratory RNA viruses) is reported as “no action at all”.
In the case of `CCN(CC)C(=S)S` [dithiocarb], the “cure or improvement of AIDS patients” value [14] is given as “does not cause cure or improvement of the patients”.
With `OCCS` [β-mercaptoethanol] the “protective effect during viral proliferation” value (HRV2 [3]) was “none of these antioxidants had any protective effect” and the “action against respiratory RNA viruses” value (respiratory RNA viruses) was “no action at all”.
For `CCN(CC)C(=S)S` [DDTC, N, N-diethyldithiocarbamate], the “viability of infected cells” value (HRV2 [3]) is listed as “significantly increased”, the “action on mengovirus virions” value (mengovirus virions) is listed as “inactivates mengovirus virions” and the “toxicity of the concentration used to inhibit the viral infections” value (HeLa cells) is listed as “exhibits no toxicity”. The “effects on uninfected cells (viability)” value (HeLa cells) was “only minor effects on uninfected cells”.
In the case of `Cc1c(C)c2c(c(C)c1O)CCC(C)(C(=O)O)O2` (centres unmarked) [Trolox], the “protective effect during viral proliferation” value (HRV2 [3]) is reported as “none of these antioxidants had any protective effect”.
